Nine compounds from ChEMBL document CHEMBL1123958, “Synthesis and antiviral properties of (E)-5-(2-bromovinyl)-2'-deoxycytidine-related compounds” (J Med Chem, 1988) can be followed below.

Where only a bound is given, the exact number is not on record here.

The test deals with Vaccinia virus. Description: Concentration required to reduce vaccinia virus induced cytopathogenicity in rabbit cell kidney culture. In kind it is functional, organism-based. To be noted: Orthopoxvirus vaccinia.

Take `CC(=O)OC[C@H]1O[C@@H](n2cc(/C=C/Br)c(=O)[nH]c2=O)C[C@@H]1OC(C)=O`: the Concentration worked out at 40 µg/mL.
In the case of `Nc1nc(=O)n([C@H]2C[C@H](O)[C@@H](CO)O2)cc1/C=C/Br`, the Concentration was above 400 µg/mL.
The compound `O=c1nc(-n2cncn2)c(/C=C/Br)cn1C1CC(O)C(CCl)O1` (centres undefined) came in with a Concentration above 100 µg/mL.
For the compound `Cc1cn([C@H]2C[C@H](O)[C@@H](CO)O2)c(=O)nc1-n1cncn1`, the Concentration was above 40 µg/mL.
With `O=c1[nH]c(=O)n([C@H]2C[C@H](O)[C@@H](CO)O2)cc1/C=C/Br` [BRIVUDINE], the Concentration was 10 µg/mL.
In the case of `CC(=O)OC[C@H]1O[C@@H](n2cc(/C=C/Br)c(-n3cncn3)nc2=O)C[C@@H]1OC(C)=O`, the Concentration was determined as 20 µg/mL.
For the compound `Cc1cn(C2CC(O)C(CCl)O2)c(=O)nc1-n1cncn1` (centres undefined), the Concentration was above 10 µg/mL.
Compound `CC(=O)OC[C@H]1O[C@@H](n2cc(C)c(-n3cncn3)nc2=O)C[C@@H]1OC(C)=O` came in with a Concentration above 40 µg/mL.
The compound `O=c1nc(-n2cncn2)c(/C=C/Br)cn1[C@H]1C[C@H](O)[C@@H](CO)O1` had a Concentration of 7 µg/mL.
